Experimental data: patent US11690814B2, “Suplatast tosilate for use in the treatment of cough associated with interstitial lung disease” (Conrig Pharma ApS, priority 2016, dated 2023)
Entries after “also recorded” stand apart in the source; their conditions may differ. Read-outs that look alike come from different tables or passages of the source.

How the values were obtained:
[1] = system: patients with Cough Variant Asthma; conditions: cited from earlier work
[2] = system: refractory chronic dry cough following lung cancer surgery; conditions: cited from earlier work
[3] = system: patients with non-atopic asthma or chronic bronchitis; conditions: cited from earlier work
Atopic cough = conditions: after four weeks of treatment; cited from earlier work
[4] = system: bleomycin-treated guinea pigs (capsaicin inhalation-induced cough); test: 30 uM capsaicin cough challenge on bleomycin-treated animals (pre-clinical model of pulmonary fibrosis); assay type: in vivo, guinea pig; conditions: for inhibition at 30 mg/kg: Cavia porcellus, ip; for mean cough, 10 min exposure: bleomycin-treated (14 days after 8 U/kg intratracheal), 30 mg/kg i.p. 30 min before 30 uM capsaicin, vehicle 52.9; for mean cough, 10 min exposure / mean cough, 5 min observation / mean cough, 10 + 5 min: n=14-16; for antitussive effect (conclusion in words): bleomycin-treated animals, capsaicin challenge; for mean cough, 5 min observation: 5 min post-exposure period, vehicle 22.4; for mean cough, 10 + 5 min: vehicle 75.3
Protocol: (§1) The study was conducted as described in example 2, with the following exceptions. The bleomycin-induced cough modes is described J. A. Fernandez-Blanco et al: Clinical Science (2015) 129, 1001-1010).
(§2) The objective of the present study was to evaluate the potential anti-tussive effect of suplatast tosilate on capsaicin inhalation-induced cough on naïve and bleomycin-treated guinea pigs.
(§3) Male guinea pigs 300-350 g bodyweight (Harlan MD, distributed by INNOVO Ltd., Hungary) were used. The animals were housed in individually ventilated cabinets in a temperature-controlled and ventilated environment (21-23° C.) with a 12-hour light-dark cycle. Water and standard ascorbic acid containing guinea pig chow were provided ad libitum. The protocol has been approved by the Hungarian Food Chain Safety and Animal Health Directorate (PEI/001/3083-6/2014) and was carried out in accordance with European Directive 86/609/EEC.
(§4) Suplatast tosilate (racemate) and reference compound codeine were dissolved in saline ([…]) at 15 mg/mL concentration. Suplatast tosilate was administered intraperitoneally at 30 mg/kg dose (2 ml/kg b.d.w. volume from the […] solution) 30 min before capsaicin challenge. Codeine is a known cough suppressant.
(§5) Three experimental groups were involved in this study: Vehicle, suplatast tosilate and codeine treated groups. Each group contained n=16 guinea pigs. Altogether, 48 guinea pigs were used for this study.
(§6) On day 0 the naïve animals were treated i.p. either with codeine or suplatast tosilate. 30 min later the cough challenge was applied. 14 days later the animals were anaesthetized by ketamin/xilazine/acepromazine 10/2/0.1 mg/kg at 1 mL/kg i.m. The trachea was prepared and 8 U/kg bodyweight (1 mL/kg volume in sterile saline) bleomycin was injected slowly into the trachea. The wound was closed by sutures. 14 days after bleomycin injection the animals were treated with the test molecules and exposed to capsaicin spray again.
(§7) The capsaicin cough-challenge protocol was applied both on day 0 naïve animals and on day 28 on bleomycin treated animals. The guinea pigs were exposed to 30 μM capsaicin spray 30 min after the test item administration. The 30 μM capsaicin spray was generated by a compressed air nebulizer (DeVilbiss Pulmoaid) connected to a transparent chamber (6.7 l volume). Compressed air with a flow of 0.16 l/s and pressure of 0.5 bar produced the spray. The capsaicin vapour penetrated into the chamber through a short tube driven by constant air flow. The animals were put into a transparent chamber individually and exposed to the capsaicin (30 μM capsaicin was diluted by water from 10^-2 M alcoholic capsaicin stock solution) aerosol for 10 minutes. The number of coughs during the 10 min inhalation period and the subsequent 5 min was counted. The coughing of the animals was defined as a strong contraction of abdomen which was followed by forced expiration through the opened mouth of the animals. Two trained technicians monitored in parallel the exposed animals and counted the cough numbers independently from each-others.
(§8) The cough numbers in each group were expressed as median and inter quartile range on the figures and mean±SD on tables. The percentage antitussive effect was also calculated.

[5] = system: naive guinea pigs (capsaicin inhalation-induced cough); test: 30 uM capsaicin cough challenge on naive animals; assay type: in vivo, guinea pig; conditions: for inhibition at 30 mg/kg: Cavia porcellus, ip; for mean cough, 10 min exposure: 30 mg/kg i.p. 30 min before 30 uM capsaicin, vehicle 9.3; for mean cough, 10 min exposure / mean cough, 5 min observation / mean cough, 10 + 5 min: n=16; for mean cough, 5 min observation: 5 min post-exposure period, vehicle 2.4; for mean cough, 10 + 5 min: vehicle 11.7; for antitussive effect (conclusion in words): capsaicin challenge
Protocol: as §1, §2, §3, §4, §5, §6, §7, §8

[6] = system: guinea pigs (enalapril plus citric acid induced cough); conditions: Zhou et al 2015; cited from earlier work
[7] = system: guinea-pigs (airway cough hypersensitivity, allergic eosinophilic inflammation); conditions: cited from earlier work
[8] = system: guinea pigs (enalapril plus citric acid induced cough); test: Cough induced by enalapril plus citric acid in guinea pigs; assay type: in vivo, guinea pig; conditions: 30 mg/kg i.p. 30 min before 10% citric acid spray; enalapril 1.3 mg/kg s.c.; whole 8-min observation; mean±S.E.M.; n=6; vehicle 11.2±2.6
Protocol: as §3, with “The method is described in detail by Zhou et al: Pharmacology. 2015; 95(1-2): 36-41. In brief: Male” for “Male”, “open cages” for “individually ventilated cabinets”
The enalapril maleate was dissolved in sterile saline (Salsol infusion, Teva) at 1.3 mg/mL concentration and was applied subcutaneously at 1.3 mg/kg dose (1 mL/kg b.d.w. volume from the 1.3 mg/mL solution) 30 min before vehicle, suplatast tosilate or administration. […]
The guinea pigs were exposed to 10% citric acid spray 30 min after the test item administration. […] The number of coughs during the 3 min inhalation period and the subsequent 5 min was counted. […] The sound of the cough was monitored by a microphone connected to a loudspeaker placed into the cough chamber. A trained technician monitored the exposed animals and counted the cough numbers.
The average cough numbers in each group was expressed as mean±S.E.M. The percentage antitussive effect was also calculated.

[9] = Solubility in dosing vehicle; assay type: physicochemical; conditions: 10% PEG400/saline mixture; 30 mg/mL dosing solution
Protocol: The vehicle for suplatast tosilate was 10% PEG400/saline mixture. Suplatast tosilate was well soluble in this mixture. ST was administered intraperitoneally at 30 mg/kg dose (1 ml/kg b.d.w. volume from the 30 mg/mL solution/suspension) 30 min before citric acid challenge. 6 guinea pigs were included in the vehicle group and in the ST group.
The vehicle for suplatast tosilate (ST) is 10% PEG400/saline mixture. ST is well soluble in this mixture. ST is administered intraperitoneally at 30 mg/kg dose (1 ml/kg b.d.w. volume from the 30 mg/mL solution/suspension) 30 min before citric acid challenge. 6 guinea pigs were included in the vehicle and in the ST groups.

[10] = system: Idiopathic Pulmonary Fibrosis (IPF); conditions: cited from earlier work
[11] = system: patients receiving the drug; conditions: cited from earlier work
[12] = bleomycin-treated, 30 mg/kg i.p.
[13] = bleomycin-treated, 30 mg/kg i.p., whole 15-min observation
[14] = naive animals, 30 mg/kg i.p., whole 15-min observation
[15] = 5 min, read-out: Percentage inhibition (antitussive effect), 5 min observation
[16] = 10 min, read-out: Percentage inhibition (antitussive effect), 10 min exposure
[17] = read-out: Percentage inhibition (antitussive effect), 10 + 5 min

SMILES: CCOCC(O)COc1ccc(NC(=O)CC[S+](C)C)cc1.Cc1ccc(S(=O)(=O)[O-])cc1 (racemic) [Suplatast tosilate, (±)-3-{[4-(3-ethoxy-2-hydroxypropoxy)phenyl]amino}-3-oxopropyl)(dimethyl)sulfonium; 4-methylbenzenesulfonate]
- effect on cough in capsaicin challenge [1]: improving cough
- effect on refractory chronic dry cough [2]: benefit refractory chronic dry cough
- effect on cough reflex sensitivity [3]: does not change the cough reflex sensitivity
- effect on cough threshold (Atopic cough): decreasing cough threshold
- inhibition at 30 mg/kg ([4]; 5 min, bleomycin-treated, 30 mg/kg i.p., post-exposure period, versus vehicle, read-out: Percentage inhibition (antitussive effect), 5 min observation): 77.7%
- inhibition at 30 mg/kg ([4]; 10 min, bleomycin-treated, 30 mg/kg i.p., versus vehicle, read-out: Percentage inhibition (antitussive effect), 10 min exposure): 42.8%
- inhibition at 30 mg/kg ([4]; bleomycin-treated, 30 mg/kg i.p., whole 15-min observation, versus vehicle, read-out: Percentage inhibition (antitussive effect), 10 + 5 min): 53.2%
- mean cough, 10 min exposure [4]: 30.3
- antitussive effect (conclusion in words) ([4]; 30 mg/kg i.p.): relevant and statistically significant antitussive effect
- mean cough, 5 min observation [4, 12]: 5
- mean cough, 10 + 5 min [4, 13]: 35.3
- inhibition at 30 mg/kg ([5]; 5 min, naive animals, 30 mg/kg i.p., post-exposure period, versus vehicle, read-out: Percentage inhibition (antitussive effect), 5 min observation): -51.9%
- inhibition at 30 mg/kg ([5]; 10 min, naive animals, 30 mg/kg i.p., versus vehicle, read-out: Percentage inhibition (antitussive effect), 10 min exposure): -5.4%
- inhibition at 30 mg/kg ([5]; naive animals, 30 mg/kg i.p., whole 15-min observation, versus vehicle, read-out: Percentage inhibition (antitussive effect), 10 + 5 min): -15%
- mean cough, 10 min exposure ([5]; naive animals): 9.8
- mean cough, 5 min observation ([5]; naive animals, 30 mg/kg i.p.): 3.7
- Percentage inhibition (antitussive effect), 5 min observation ([5]; naive animals, 30 mg/kg i.p., post-exposure period, versus vehicle, 30 mg/kg): did not show antitussive effect
- Percentage inhibition (antitussive effect), 10 min exposure ([5]; naive animals, 30 mg/kg i.p., versus vehicle, 30 mg/kg): did not show antitussive effect
- mean cough, 10 + 5 min [5, 14]: 13.4
- antitussive effect (conclusion in words) ([5]; naive animals, 30 mg/kg i.p.): did not show antitussive effect
- effect on citric acid+enalapril induced cough [6]: reduce citric acid+enalapril induced cough
- acute effect on capsaicin induced cough ([7]; acute administration, airway allergy guinea-pig model): does not acutely reduce capsaicin induced cough
- effect on airway cough hypersensitivity ([7]; sub-chronic administration, allergic eosinophilic inflammation, listed as ST): reduce airway cough hypersensitivity; also recorded: inhibiting airway cough hypersensitivity
- cough number [8]: 7.2±2.8
- solubility in vehicle [9]: well soluble

SMILES: COc1ccc2c3c1O[C@H]1[C@@H](O)C=C[C@H]4[C@@H](C2)N(C)CC[C@@]341 [Codeine, codeine]
- inhibition at 30 mg/kg [4, 15]: 76.2%
- inhibition at 30 mg/kg [4, 16]: 72.9%
- inhibition at 30 mg/kg [4, 17]: 73.9%
- mean cough, 10 min exposure [4]: 14.3
- antitussive effect (conclusion in words) ([4]; 30 mg/kg i.p.): showed antitussive effect
- mean cough, 5 min observation [4, 12]: 5.3
- mean cough, 10 + 5 min [4, 13]: 19.7
- inhibition at 30 mg/kg [5, 15]: 97.4%
- inhibition at 30 mg/kg [5, 16]: 43.9%
- inhibition at 30 mg/kg [5, 17]: 55%
- mean cough, 10 min exposure ([5]; naive animals): 5.2
- mean cough, 5 min observation ([5]; naive animals, 30 mg/kg i.p.): 0.1
- mean cough, 10 + 5 min [5, 14]: 5.3
- antitussive effect (conclusion in words) ([5]; naive animals, 30 mg/kg i.p.): showed antitussive effect

SMILES: COC(=O)c1ccc2c(c1)NC(=O)/C2=C(\Nc1ccc(N(C)C(=O)CN2CCN(C)CC2)cc1)c1ccccc1 [Ofev (nintedanib), nintedanib]
- effect on decline of lung function [10]: slow the decline of lung function
- effect on mortality and lung function [10]: has not been shown to reduce mortality or improve lung function

SMILES: CCCCc1oc2ccccc2c1C(=O)c1cc(I)c(OCCN(CC)CC)c(I)c1 [amiodarone]
- patients who get pulmonary fibrosis [11]: up to 40%

SMILES: O=C1CN(/N=C/c2ccc([N+](=O)[O-])o2)C(=O)N1 [nitrofurantoin]
- patients who get pulmonary fibrosis [11]: 0.01%
